From ChEMBL document CHEMBL5030565, “Stapled Peptides Targeting SARS-CoV-2 Spike Protein HR1 Inhibit the Fusion of Virus to Its Cell Receptor” (J Med Chem, 2021)
pEC50: −log10 of the molar value. Calls of active or inactive are those of the source. The rule behind the calls is not given here.

Columns and labels:
SARS-CoV-2 [1] = assay: Antiviral activity against pseudotyped SARS-CoV-2 infected in Huh7 cells expressing hACE2 preincubated for 1 hr followed by cell infection measured after 2 days by bright-Glo luciferase assay; assay type: functional, organism-based; conditions: Severe acute respiratory syndrome coronavirus 2, Huh-7
SARS-CoV-2 [2] = assay: Antiviral activity against pseudotyped SARS-CoV-2 infected in Huh7 cells expressing hACE2 at 10 uM preincubated for 1 hr followed by cell infection measured after 2 days by bright-Glo luciferase assay; assay type: functional, Severe acute respiratory syndrome coronavirus 2, Huh-7; conditions: time 49 hrs
SARS-CoV-2 [3] = assay: Antiviral activity against pseudotyped SARS-CoV-2 infected in Calu-3 cells at higher concentration; assay type: functional, organism-based; conditions: Severe acute respiratory syndrome coronavirus 2
SARS-CoV-2 [4] = assay: Antiviral activity against SARS-CoV-2 infected in Vero E6 cells assessed as reduction in viral replication preincubated for 30 mins followed by viral infection measured after 72 hrs by crystal violet staining based plaque assay; assay type: functional, organism-based; conditions: Severe acute respiratory syndrome coronavirus 2, Vero C1008
chymotrypsin = chymotrypsin (Homo sapiens, UniProt P17538+P40313+Q6GPI1+Q99895); assay: Stability of the compound in PBS at pH 7.4 assessed as chymotrypsin (unknown origin)-mediated proteolysis by measuring remaining compound after 12 hrs by HPLC analysis; assay type: ADME, protein assay; conditions: read-out: Stability
SARS-CoV-2 [5] = assay: Antiviral activity against SARS-CoV-2 infected in Vero E6 cells assessed as reduction in viral replication at 12.5 uM preincubated for 30 mins followed by viral infection measured after 72 hrs by crystal violet staining based plaque assay; assay type: functional, Severe acute respiratory syndrome coronavirus 2; design: scale not given: the % may be the effect or the level left
[6] = target: Spike glycoprotein (Severe acute respiratory syndrome coronavirus 2) (UniProt P0DTC2); assay: Inhibition of SARS-CoV-2 spike glycoprotein expressed in HEK293T cells transfected with pAAV-CAG-HnCovS-RFP assessed as inhibition of membrane fusion to Huh-7 cells expressing hACE2 at 30 uM measured after 4 hrs by cell-cell fusion based fluorescence assay; assay type: functional

Question: What does the source list for `CC[C@H](C)[C@H](NC(=O)CNC(=O)[C@H](CO)NC(=O)[C@@H](NC(=O)[C@H](CC(=O)O)NC(C)=O)[C@@H](C)CC)C(=O)N[C@@H](CC(N)=O)C(=O)N[C@@H](C)C(=O)N[C@@H](CO)C(=O)N[C@H](C(=O)N[C@H](C(=O)N[C@@H](CC(N)=O)C(=O)N[C@H](C(=O)N[C@@H](CCC(N)=O)C(=O)N[C@@H](CCCCN)C(=O)N[C@@H](CCC(=O)O)C(=O)N[C@H](C(=O)N[C@@H](CC(=O)O)C(=O)N[C@@H](CCCNC(=N)N)C(=O)N[C@@H](CC(C)C)C(=O)N[C@@]1(C)CCC/C=C\CCC[C@@](C)(C(=O)N[C@@H](CC(N)=O)C(=O)N[C@@H](CC(C)C)C(=O)N[C@@H](CC(N)=O)C(=O)N[C@@H](CCC(=O)O)C(=O)N[C@@H](CO)C(=O)N[C@@H](CC(C)C)C(=O)N[C@H](C(=O)N[C@@H](CC(=O)O)C(=O)N[C@@H](CC(C)C)C(=O)N[C@@H](CCC(N)=O)C(=O)N[C@@H](CCC(=O)O)C(=O)N[C@@H](CC(C)C)C(N)=O)[C@@H](C)CC)NC(=O)[C@H](C)NC(=O)[C@H](C(C)C)NC(=O)[C@H](CCC(=O)O)NC1=O)[C@@H](C)CC)[C@@H](C)CC)C(C)C)C(C)C`?
Answer: pEC50 (SARS-CoV-2 [1]): 5.39; Activity (SARS-CoV-2 [2]): 69.7%; Activity (SARS-CoV-2 [3]): Active; pEC50 (SARS-CoV-2 [4]): 5.18; remaining at 12 h (chymotrypsin): > 80%; Activity (SARS-CoV-2 [5]): 55%; inhibition [6]: Active
